Values of other authors in patent publication US10463613B2, “Cromolyn compositions for treatment of chronic cough due to idiopathic pulmonary fibrosis” (Respivant Sciences GmbH, priority 2016, dated 2019).
Where two headings read alike, the source gives them in different places.

Conditions: in vivo

Bioavailability of available formulations: approximately 1%
Oral bioavailability: ~1%
Oral bioavailability (listed as cromolyn): about 1%
Structure (SMILES): O=C([O-])c1cc(=O)c2c(OCC(O)COc3cccc4oc(C(=O)O)cc(=O)c34)cccc2o1.[Na+] [cromolyn sodium, disodium 5,5′-(2-hydroxypropane-1,3-diyl)bis(oxy)bis(4-oxo-4H-chromene-2-carboxylate)]
